The target of this experiment is T1, Sirt6 (Homo sapiens, UniProt Q8N6T7).
T1 construct: purchased CycLex CY-1156V2
T1 sequence (Q8N6T7 whole entry): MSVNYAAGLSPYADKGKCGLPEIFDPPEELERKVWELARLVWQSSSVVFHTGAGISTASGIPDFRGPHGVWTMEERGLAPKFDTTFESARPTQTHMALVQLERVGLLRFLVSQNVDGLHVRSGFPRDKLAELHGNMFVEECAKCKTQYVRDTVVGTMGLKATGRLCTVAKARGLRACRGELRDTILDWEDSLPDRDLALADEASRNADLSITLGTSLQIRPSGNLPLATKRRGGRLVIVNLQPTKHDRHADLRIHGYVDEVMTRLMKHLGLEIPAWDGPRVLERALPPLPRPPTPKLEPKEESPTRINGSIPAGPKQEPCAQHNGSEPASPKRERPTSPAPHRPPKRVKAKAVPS
Put plainly: Measurement of Sirt6 Activity (CycLex Sirt6 Deacetylase Fluorometric Assay Kit). The experiment is classed as biochemical. To be noted: compound at 10 μM; fluorescence relative to the group without compound treatment (positive control group). The procedure, abridged: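 Recombinant Sirt6 with fluoro-labelled acetyl-lysine peptide, NAD and lysylendopeptidase developer, compound added from 10× stock in PBS; 1 h at room temperature. Fluorescence read at ex 490/em 530 nm; activation expressed as fluorescence ratio relative to enzyme without compound.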
`CCS(=O)(=O)Nc1cccc(-c2nn(-c3ccccc3)c(=O)c3ccccc23)c1` [Example 1, N-(3-(4-Oxo-3-phenyl-3,4-dihydrophthalazin-1-yl)phenyl)ethanesulfonamide]: the “Sirt6 Activity (% activity, 10 μM)” value stood at 170 % activity.

For the compound `CC(C)/[N+]([O-])=C/c1cccc(-c2nn(-c3c(F)cccc3F)c(=O)c3ccccc23)c1` [Example 103, (Z)-1-(3-(3-(2,6-Difluorophenyl)-4-oxo-3,4-dihydrophthalazin-1-yl)phenyl)-N-isopropylmethanimine Oxide], the “Sirt6 Activity (% activity, 10 μM)” value turned out to be 324 % activity.

For the compound `CCNc1cccc(-c2nn(-c3ccc(C(F)(F)F)cc3)c(=O)c3ccccc23)c1` [Example 4, 4-(3-(Ethylamino)phenyl)-2-(4-(trifluoro-methyl)phenyl)phthalazin-1(2H)-one], the “Sirt6 Activity (% activity, 10 μM)” value was 102 % activity.

Turning to `Cl.O=c1c2ccccc2c(C2=CCNCC2)nn1-c1ccc(F)cc1F` [Example 215, 2-(2,4-Difluorophenyl)-4-(1,2,3,6-tetrahydropyridin-4-yl)phthalazin-1(2H)-one-hydrochloride], the “Sirt6 Activity (% activity, 10 μM)” value was found to be 226.60 % activity.

For the compound `CC(C)(C)/[N+]([O-])=C/c1cccc(-c2nn(-c3ccc(F)cc3F)c(=O)c3ccccc23)c1` [Example 23, (Z)—N-tert-Butyl-1-(3-(3-(2,4-difluorophenyl)-4-oxo-3,4-dihydrophthalazin-1-yl)phenyl)methanimine Oxide], the “Sirt6 Activity (% activity, 10 μM)” value turned out to be 192 % activity.

As to `C/[N+]([O-])=C/c1cccc(-c2nn(-c3ccc(F)cc3)c(=O)c3ccccc23)c1` [Example 15, (Z)-1-(3-(3-(4-Fluorophenyl)-4-oxo-3,4-dihydrophthalazin-1-yl)phenyl)-N-methylmethanimine Oxide], the “Sirt6 Activity (% activity, 10 μM)” value was 231 % activity.

For `NC(=O)C1(c2cccc(-c3nn(-c4ccc(Cl)cc4)c(=O)c4ccccc34)c2)CC1` [Example 198, 1-(3-(3-(4-Chlorophenyl)-4-oxo-3,4-dihydrophthalazin-1-yl)phenyl)cyclopropan-1-carboxyamide], the “Sirt6 Activity (% activity, 10 μM)” value stood at 225.40 % activity.

Consider `CCN(CC)S(=O)(=O)c1cccc(-c2nn(-c3ccc(F)cc3F)c(=O)c3ccccc23)c1` [Example 217, 3-(3-(2,4-Difluorophenyl)-4-oxo-3,4-dihydrophthalazin-1-yl)-N,N-diethylbenzenesulfonamide], for which the “Sirt6 Activity (% activity, 10 μM)” value was 185.10 % activity.

`C/[N+]([O-])=C\c1ccc(-c2nn(-c3ccc(F)cc3)c(=O)c3ccccc23)cc1` [Example 36, (E)-1-(4-(3-(4-Fluorophenyl)-4-oxo-3,4-dihydrophthalazin-1-yl)phenyl)-N-methylmethanimine Oxide]: the “Sirt6 Activity (% activity, 10 μM)” value is 142 % activity.

Regarding `CC(C)(C(=O)O)C1CN(c2nn(-c3ccc(F)cc3F)c(=O)c3ccccc23)CCO1` (stereo not drawn) [Example 221, 2-(4-(3-(2,4-Difluorophenyl)-4-oxo-3,4-dihydrophthalazin-1-yl)morpholin-2-yl)-2-methylpropanoic Acid], the “Sirt6 Activity (% activity, 10 μM)” value was determined as 125.50 % activity.

For `O=C(O)C1(c2cccc(-c3nn(-c4ccc(Cl)cc4)c(=O)c4ccccc34)c2)CC1` [Example 195, 1-(3-(3-(4-Chlorophenyl)-4-oxo-3,4-dihydrophthalazin-1-yl)phenyl)cyclopropan-1-carboxylic Acid], the “Sirt6 Activity (% activity, 10 μM)” value amounted to 287.30 % activity.

Take `CNS(=O)(=O)c1cccc(-c2nn(-c3ccc(F)cc3F)c(=O)c3ccc(F)cc23)c1` [Example 121, 3-(3-(2,4-Difluorophenyl)-7-fluoro-4-oxo-3,4-dihydrophthalazin-1-yl)-N-methylbenzenesulfonamide]: the “Sirt6 Activity (% activity, 10 μM)” value was 157 % activity.

Consider `CN(c1cccc(-c2nn(-c3ccccc3)c(=O)c3ccccc23)c1)S(C)(=O)=O` [Example 7, N-Methyl-N-(3-(4-oxo-3-phenyl-3,4-dihydro-phthalazin-1-yl)phenyl)methanesulfonamide], for which the “Sirt6 Activity (% activity, 10 μM)” value is recorded as 173 % activity.

For the compound `CCCS(=O)(=O)Nc1cccc(-c2nn(-c3ccc(F)cc3)c(=O)c3ccccc23)c1` [Example 68, N-(3-(3-(4-Fluorophenyl)-4-oxo-3,4-dihydrophthalazin-1-yl)phenyl)propan-1-sulfonamide], the “Sirt6 Activity (% activity, 10 μM)” value came out at 160 % activity.

Regarding `CC(C)/[N+]([O-])=C/c1cccc(-c2nn(-c3cc(F)cc(F)c3)c(=O)c3ccccc23)c1` [Example 31, (Z)-1-(3-(3-(3,5-Difluorophenyl)-4-oxo-3,4-dihydrophthalazin-1-yl)phenyl)-N-isopropyl Methanimine Oxide], the “Sirt6 Activity (% activity, 10 μM)” value turned out to be 171 % activity.

As for `CC(C)/[N+]([O-])=C/c1cccc(-c2nn(-c3ccccc3)c(=O)c3ccccc23)c1` [Example 14, (Z)—N-Isopropyl-1-(3-(4-oxo-3-phenyl-3,4-dihydrophthalazin-1-yl)phenyl)methanimine Oxide], the “Sirt6 Activity (% activity, 10 μM)” value was determined as 121 % activity.

With `CC(C)(C(=O)O)C1CCCN(c2nn(-c3ccc(Cl)cc3)c(=O)c3ccccc23)C1` (stereo not drawn) [Example 209, 2-(1-(3-(4-Chlorophenyl)-4-oxo-3,4-dihydrophthalazin-1-yl)piperidin-3-yl)-2-methylpropanoic Acid], the “Sirt6 Activity (% activity, 10 μM)” value came out at 169.10 % activity.

On to `CC(C)(C(=O)NC1CCCCC1)c1cccc(-c2nn(-c3ccc(F)cc3F)c(=O)c3ccccc23)c1` [Example 180, N-Cyclohexyl-2-(3-(3-(2,4-difluorophenyl)-4-oxo-3,4-dihydrophthalazin-1-yl)phenyl)-2-methylpropanamide], for which the “Sirt6 Activity (% activity, 10 μM)” value is listed as 133.30 % activity.

Turning to `CCS(=O)(=O)Nc1cccc(-c2nn(C3COC3)c(=O)c3ccccc23)c1` [Example 136, N-(3-(3-(Oxetan-3-yl)-4-oxo-3,4-dihydrophthalazin-1-yl)phenyl)ethanesulfonamide], the “Sirt6 Activity (% activity, 10 μM)” value is on record as 101.27 % activity.

Consider `CNS(=O)(=O)N(C)c1cccc(-c2nn(-c3ccc(F)cc3)c(=O)c3ccccc23)c1` [Example 80, N-(3-(3-(4-Fluorophenyl)-4-oxo-3,4-dihydrophthalazin-1-yl)phenyl)-N-methyl-methyl Sulfamoylamide], for which the “Sirt6 Activity (% activity, 10 μM)” value was found to be 216 % activity.

Turning to `C/[N+]([O-])=C\c1ccc(-c2nn(-c3ccc(F)cc3)c(=O)c3ccccc23)c(F)c1` [Example 38, (E)-1-(3-Fluoro-4-(3-(4-fluorophenyl)-4-oxo-3,4-dihydrophthalazin-1-yl)phenyl)-N-methylmethanimine Oxide], the “Sirt6 Activity (% activity, 10 μM)” value came out at 143 % activity.

For `CN(C)S(=O)(=O)c1cccc(-c2nn(-c3ccc(F)cc3)c(=O)c3ccccc23)c1` [Example 88, 3-(3-(4-Fluorophenyl)-4-oxo-3,4-dihydrophthalazin-1-yl)-N,N-dimethylbenzene Sulfonamide], the “Sirt6 Activity (% activity, 10 μM)” value is recorded as 180 % activity.

For `CC(C)(C(N)=O)c1cccc(-c2nn(C3CCCCC3)c(=O)c3ccccc23)c1` [Example 163, 2-(3-(3-Cyclohexyl-4-oxo-3,4-dihydrophthalazin-1-yl)phenyl)-2-methylpropanamide], the “Sirt6 Activity (% activity, 10 μM)” value is given as 277 % activity.

With `CCS(=O)(=O)Nc1cccc(-c2nn(C3CCC(C)CC3)c(=O)c3ccccc23)c1` (stereo not drawn) [Example 145, N-(3-(3-(4-Methylcyclohexyl)-4-oxo-3,4-dihydrophthalazin-1-yl)phenyl)ethanesulfonamide], the “Sirt6 Activity (% activity, 10 μM)” value amounted to 136.6 % activity.

(Values after patent publication US20220235011A1, “PHTHALAZINONE COMPOUNDS AND USE THEREOF” (ST PHARM CO., LTD., priority 2019, published 2022).)
